Assay results published in patent US8099262B2, “Estimation of clinical cut-offs” (priority 2004, dated 2012).
Entries after “also recorded” stand apart in the source; their conditions may differ. Like-named read-outs stand apart in the source and are kept apart here.

How the values were obtained:
HIV [1] = type: in vivo; parameters: key to effect range (difference between maximum and minimum effect, log viral load): log viral load drop; max effect (FC 1) minus min effect (plateau); Linear Regression Higher CO / Linear Regression Lower CO: unit not given here
From the text: Databases of studies for patients with tenofovir containing regimens and consisting of patient baseline demographic characteristics, clinical outcome results with viral load and resistance data (Fold change), were retrieved and remapped according to a common structure allowing a meta-analysis. The structure consisted of baseline sequence, viral load data set, viral load measurements and sampling dates (for example viral load within 3 months of starting new regimen and viral load assessment 8 and/or 24 weeks after beginning new regimen), CD4+ data set which contains CD4+ counts and sampling dates, resistance data set containing the fold changes to different antivirals and sampling dates; patient data set with patient information such as age, gender, race, treatment history; treatment data set with drug regimens, start and stop dates, doses, formulations, frequency of intake, regimen changes after resistance tests. The structure of such a clinical data base can be seen in FIG. 1a.
The viral load response data includes censored (<400 copies/ml) values. Parameters of the underlying uncensored distribution were estimated by maximum likelihood estimation in SAS (proc lifereg). The viral load response data are corrected for baseline viral load and cPSS.
The models applied were linear regression, logistic regression, and a classification tree. These models also took into account effects of the concomitant HIV drugs (PSS), baseline viral load (Baseline Log(V1)i) and, optionally, treatment history in order to avoid bias introduced by imbalances of important characteristics. From the models, a prediction of clinical outcome could be made at different levels of the baseline fold change resistance.
In the linear regression model, the proposed equation was the following: LogVL dropi=β0+β1*Baseline Log(V1)i+β2*PSSi+β3*(1/FC)i+ξi where i represented the patient, β0 the intercept, β1, β2 and β3 coefficients indicated the increase in log viral load drop per unit increase of respectively the baseline log VL, the number of sensitive drugs in the background regimen and the inverse of the baseline fold change. ξi was a random error term indicating the deviation of the patient from the value predicted by the model. Interactions between all the factors were evaluated and other baseline characteristics, i.e treatment history, were added if relevant.
When viral load results under the detection limits are obtained, biases could be introduced if the detection limit values are considered when calculating viral load drops and using those in the linear regression model. To avoid this, censoring needed to be taken into account and therefore the PROC LIFEREG facility in the SAS package was employed.
Clinical responses were predicted in the models developed in previous step 2. […] In order to determine the fold changes at which clinically relevant diminished clinical responses can be observed, three definitions of clinical cut-offs were considered:
The maximum effect was defined as the treatment effect at fold change 1, and the minimum effect was defined as the treatment effect at a very high fold change (i.e. when the curve reached a plateau). The effect range was then the difference between the maximum effect and the minimum effect.

HIV [2] = type: in vivo
From the text: Further factors which may be taken into account when validating the model are the odds ratios determined using clinical cutoffs compared to those determined using biological cutoffs. These ratios represent the odds of being a responder in the group that is labeled resistant by the cutoffs divided by the odds of being a responder in the group that is labeled sensitive by the cutoffs. In this way it is possible to evaluate how well the cutoffs perform on a drug by drug basis. The further away that the odds ratio is from 1, the stronger the correlation between the resistance class and clinical outcome. The odds ratio as specified above yield numbers smaller than 1 as the odds of being a responder should be smaller in the higher resistance class. Put another way, the probability of response will decrease as the resistance increases. Additionally, if the odds ratio for the CCO is smaller than the odds ratio for the BCO, it can be concluded that the CCO is stronger correlated with clinical outcome and therefore gives a better prediction than the BCO.
(§1) A logistic regression model may be used to determine the odds ratio. The model used is the same as the logistic regression model described above except that the fold change in the model is replaced by the resistance class. The coefficient for the resistance class that is obtained from the model is the log (odds ratio). The advantage of using this model is that the odds ratio estimates can be adjusted for the baseline viral load and the cPSS score of the background regimen.
The columns headed CCO Odds Ratio and BCO Odds Ratio represent the odds of being a responder in the group that is labeled resistance by the cutoffs divided by the odds of being a responder in the group that is labeled sensitive by the cutoffs. For example, if there are four non-responders and one responder in the resistant group, and four responders and two non-responders in the sensitive group, the odds of being a responder in the resistant group is 1:4=0.25 and the odds of being a responder in the sensitive group is 4:2=2. […] The further away that the odds ratio is from 1, the stronger the correlation between the resistance class and clinical outcome.
The separation in groups (resistance/sensitive) can be done based on clinical cutoffs or biological cutoffs. This means that odds ratios based on clinical cutoffs (CCO) and odds ratios based on biological cutoffs (BCO) can be compared. If the odds ratio for the CCO is smaller than the odds ratio for the BCO, it can be concluded that the CCO gives a better prediction than the BCO.
as §1, with “In practice, a” for “A”, “is” for “may be”, “similar to” for “the same as the”, “earlier” for “above”, “regimen. […] In this case, a larger odds ratio indicates a stronger correlation with clinical outcome.” for “regimen.”

HIV [3] = conditions: Definition 3
From the text: This methodology constructs tree-structured rules in order to classify patients as successes (undetectable pathogen load after treatment) and failures. […] Imbalances for such parameters may therefore influence the decision taken for a certain parameter.
The classification tree poses queries, in which the answer to each query results in either the left or the right branch of the tree being taken at each stage. […] If yes, the left branch is taken, if no the right branch is taken. As with the methods of the aspects of the invention described previously, the other factors queried include the log baseline pathogen load and the phenotypic sensitivity score. The numbers at the termini of the final branches represent the response rate (1=100% response).
The clinical cut-off is chosen as the fold change that makes the difference between the two groups as large as possible.
In the classification trees model, tree-structured rules were constructed in order to classify patients in successes (undetectable viral load after treatment) and failures. The same parameters as for the other techniques were considered.
This implies that imbalances for other parameters may influence the decision taken for a certain parameter.
Definition 3 was a variant of definition 2.
Using definition 3, breakpoints determined by classification trees are applicable only to a subset of patients unless fold change is selected at the first tree node.

[4] = Definition 1, Subgroup 2: PSS = 0, baseline Log (VL) = 4
[5] = Definition 1, Subgroup 3: PSS = 2, baseline Log (VL) = 5
[6] = Definition 2, Overall (whole population)
[7] = Definition 2, Subgroup 1: PSS = 2, baseline Log (VL) = 4
[8] = Definition 2, Subgroup 2: PSS = 0, baseline Log (VL) = 4
[9] = Definition 2, Subgroup 3: PSS = 2, baseline Log (VL) = 5
[10] = Definition 2, two active drugs besides the drug, baseline Log(VL) of 4
[11] = Definition 3, Subgroup 1: PSS = 2, baseline Log (VL) = 4
[12] = Definition 3, Subgroup 2: PSS = 0, baseline Log (VL) = 4
[13] = Definition 3, Subgroup 3: PSS = 2, baseline Log (VL) = 5
[14] = preliminary linear regression analysis, virologic response at 8 weeks

CC(C)OC(=O)OCOP(=O)(CO[C@H](C)Cn1cnc2c(N)ncnc21)OCOC(=O)OC(C)C.O=C(O)/C=C/C(=O)O [TDF]
Linear Regression Lower CO (clinical cut-off, fold change) (HIV [1]; Definition 1, Subgroup 1: PSS = 2, baseline Log (VL) = 4): 3.73 | Linear Regression Higher CO (clinical cut-off, fold change) (HIV [1]; Definition 1, Subgroup 1: PSS = 2, baseline Log (VL) = 4, listed as Tenofovir): >assay | Linear Regression Higher CO (clinical cut-off, fold change) (HIV [1]; Definition 1, Subgroup 1: PSS = 2, baseline Log (VL) = 4, listed as tenofovir): No higher cut-off could be derived; also recorded: >assay | Linear Regression Higher CO (HIV [1]; [4]): 3.8 | Linear Regression Lower CO (HIV [1]; [4]): 1.68 | Linear Regression Higher CO (HIV [1]; [5]): >assay | Linear Regression Lower CO (HIV [1]; [5]): >assay | Linear Regression Higher CO (HIV [1]; [6]): 5 | Linear Regression Lower CO (HIV [1]; [6]): 1.25 | Linear Regression Higher CO (HIV [1]; [7]): 5 | Linear Regression Lower CO (HIV [1]; [7]): 1.25 | Linear Regression Higher CO (HIV [1]; [8]): 5 | Linear Regression Lower CO (HIV [1]; [8]): 1.25 | Linear Regression Higher CO (HIV [1]; [9]): 5 | Linear Regression Lower CO (HIV [1]; [9]): 1.25 | drop in log viral load at fold change 1 (HIV [1]; [10]): −1.48 | drop in log viral load at the maximum (asymptotic) fold change (HIV [1]; [10]): −0.28 | effect range (difference between maximum and minimum effect, log viral load) (HIV [1]; [10]): 1.2 | Linear Regression Higher CO (HIV [1]; Definition 3, Overall): 5 | Linear Regression Lower CO (HIV [1]; Definition 3, Overall): 1.1 | Linear Regression Higher CO (HIV [1]; [11]): 5 | Linear Regression Lower CO (HIV [1]; [11]): 1.1 | Linear Regression Higher CO (HIV [1]; [12]): 5 | Linear Regression Lower CO (HIV [1]; [12]): 1.1 | Linear Regression Higher CO (HIV [1]; [13]): 5 | Linear Regression Lower CO (HIV [1]; [13]): 1.1 | VIROLOGIC RESPONSE Baseline FC for 80% REDUCTION of response (upper cutoff) (HIV [1]; preliminary linear regression analysis, definition 2): 2.5 | VIROLOGIC RESPONSE 20% REDUCTION (fold change, preliminary VirtualPhenotype Clinical Cutoff) (HIV [1]; [14]): 1.2 | VIROLOGIC RESPONSE 80% REDUCTION (fold change, preliminary VirtualPhenotype Clinical Cutoff) (HIV [1]; [14]): 2.5 | lower cut-off derived from the Table (HIV [1]; summary over models, 2 active drugs besides the drug, baseline log(VL) of 4): 1.2 | Test Data BCO Odds Ratio (HIV [2]; test data, biological cutoffs): 0.570 | Test Data CCO Odds Ratio (HIV [2]; test data, clinical cutoffs): 0.228 | Validation Data CCO Odds Ratio (HIV [2]; validation data, clinical cutoffs): 0.226 | Classification Tree Lower CO (HIV [3]; Overall): 1.15 | Classification Tree Lower CO (HIV [3]; Subgroup 1: PSS = 2, baseline Log (VL) = 4): 1.15 | Classification Tree Lower CO (HIV [3]; Subgroup 2: PSS = 0, baseline Log (VL) = 4): 1.15 | Classification Tree Lower CO (HIV [3]; Subgroup 3: PSS = 2, baseline Log (VL) = 5): 1.15
